13 compounds from patent US20030212100A1, “Quinoline derivatives and medicinal use thereof” (priority 2000, published 2003) can be followed below.

The structures appear in SMILES notation. Structures can show the parent of a compound that is named as a salt.

In one assay the target is T1, human PPARγ receptor (Homo sapiens, UniProt P37231).
T1 construct: corresponding to Ser204-Tyr506 for human PPARγ1 receptor and human PPARγ2; expressed in transfected cells; host or cells: CV-1 cells (pSG5-based expression vector)
T1 sequence (P37231 204-505 limits assumed): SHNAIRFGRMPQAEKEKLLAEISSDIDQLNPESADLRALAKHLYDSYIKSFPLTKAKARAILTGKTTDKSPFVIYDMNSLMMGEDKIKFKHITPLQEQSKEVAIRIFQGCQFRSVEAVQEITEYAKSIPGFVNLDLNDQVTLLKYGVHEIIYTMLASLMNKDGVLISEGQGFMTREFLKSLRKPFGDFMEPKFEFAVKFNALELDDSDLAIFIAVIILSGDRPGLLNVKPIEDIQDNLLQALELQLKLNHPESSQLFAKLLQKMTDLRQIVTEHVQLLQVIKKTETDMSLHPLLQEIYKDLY
As to the kind of experiment: Luciferase reporter assay of PPARγ agonist activity (Gal4-PPARγ chimera receptor in CV-1 cells). It is filed as cell-based. The conditions noted are these: luciferase activity with 1 μM Pioglitazone taken as 100, read-out: PPAR γ agonist activity, relative activity; for Emax at 0.1 µM: CV-1, 0.1 μM compound; for Emax at 1 µM: CV-1, 1 μM compound; for Emax at 10 µM: CV-1, 10 μM compound. The method, then:
(§1) Measurement of PPARα Agonist Activity and PPARγ Agonist Activity
(§2) 1. Materials for Assay of Luciferase Using Human PPARα and PPARγ Receptors
(§3) The entire procedure was carried out according to the fundamental methods of genetic engineering and the ordinary method in the yeast one-hybrid or two-hybrid system was applied.
(§4) PGL2-UAS5-TK-luc was prepared as a reporter plasmid carrying a response sequence of Gal4 protein as a basic transcription factor of yeast, an enhancer sequence with five repeat part of UAS, a luciferase gene (luc) under the control of timidine kinase (TK) promoter. Specifically, a DNA fragment encoding a TK promoter (−105/+51) on the downstream side of an enhancer sequence comprising two time repeat of UAS was amplified by PCR using pRL-TK carrying a TK promoter (Promega, Trade name: Catalogue No. E2241) as the template and the primers: […]
(§5) After the fragment was cleaved with XhoI-Hind III, pGL2-UAS2-TK-luc was obtained by inserting the resultant fragment into the XhoI-Hind III site located on the upstream side of a luciferase structural gene on pGL2-Basic vector (Promega, Trade name: Catalogue No. E1641).
(§6) After cleavage of a synthetic DNA as an enhancer sequence comprising three time repeat of Gal4 response sequence (SEQ ID NO: 3): 5′-ATTGGTAC([…])×3 AGATCTCGAC) using KpnI and BgIII was carried out, pGL2-UAS5-TK-luc was prepared by inserting the resulting fragment into the KpnI-BgIIIb site of pGL2-UAS2-TK-luc.
(§7) A vector for expression of a chimera receptor protein, in which a ligand binding region of an internuclear receptor human PPARα or PPARγ receptor was fused with the carboxyl terminal of a DNA binding region of yeast Ga14 protein, was prepared as follows:
(§8) The structural gene of pSG5 (STRATAGENE, Trade Name: Catalogue No. 216201) as the basic expression vector was changed for the chimera receptor except that the promoter-enhancer region was maintained as it was.
(§9) The DNA encoding the ligand binding region of the human PPARα or PPARγ receptor was fused on the downstream side of the DNA encoding the DNA binding region and the amino acid sequence from 1 to 147 positions of Ga14 protein so that their reading frames were fitted and the resulting fused DNA was inserted into pSG5 (trade name) on the down stream side of the promoter-enhancer region. In this step, the DNA sequence was arranged so that a signal for transfer into the nucleus (Ala Pro Lys Lys Lys Arg Lys Val Gly (SEQ ID: No: 4) derived from SV-40T antigen was located on the amino terminal of the ligand binding region of PPARα or PPARγ receptor in order to localize the chimera receptor in the nucleus.
(§10) Based on comparison of the human PPAR receptors described in R. Mukherjee et al., [see J. Steroid Biochem. Molec. Biol., Vol. 51, p157 (1994)] and M. E. Green et al., [see Gene Expression, Vol. 4, p281 (1995))], as the structural gene part used for the ligand binding region PPARα or PPARγ, the human PPARα ligand binding region: Ser167-Tyr468; and the PPARγ ligand binding region: Ser176-Tyr478 were used, which had the same sequences corresponding to Ser204-Tyr506 for human PPARγ1 receptor and human PPARγ2, respectively.
(§11) In order to monitor influence against the basic transcription, an expression vector was prepared which carried a DNA encoding only the DNA binding region and the amino acid sequence from 1 to 147 position of Ga14 protein defective in its PPAR ligand binding region and a signal for transfer into the nucleus of SV-40T-antigen.
(§12) 2. Assay of Luciferase Using Human PPARα or PPARγ Receptor
(§13) CV-1 cells used as a host cell were cultivated according to an ordinary method. Specifically, a fetal bovine serum (Intergent, Catalogue No. 1020-90) was added to a Dulbecco's modified Eagle's medium (DMEM) so that the final concentration became 10%. Further, penicillin G (50 U/ml) and streptomycin sulfate (50 μg/ml) were added. Cultivation was conducted in the resulting medium in a 5% carbon dioxide gas at 37° C. […]

The target in another assay is T2, human PPARα receptor (Homo sapiens, UniProt Q07869).
T2 construct: expressed in transfected cells; host or cells: CV-1 cells (pSG5-based expression vector)
T2 sequence (Q07869 167-468): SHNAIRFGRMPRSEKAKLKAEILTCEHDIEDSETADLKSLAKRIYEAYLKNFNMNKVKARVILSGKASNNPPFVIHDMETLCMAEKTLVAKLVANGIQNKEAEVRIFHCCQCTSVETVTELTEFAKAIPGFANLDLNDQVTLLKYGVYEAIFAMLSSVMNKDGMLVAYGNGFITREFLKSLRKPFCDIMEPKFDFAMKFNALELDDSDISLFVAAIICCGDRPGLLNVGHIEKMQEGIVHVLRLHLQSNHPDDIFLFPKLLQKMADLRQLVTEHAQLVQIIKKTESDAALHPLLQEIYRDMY
Kind of assay: Luciferase reporter assay of PPARα agonist activity (Gal4-PPARα chimera receptor in CV-1 cells). It counts as cell-based. The conditions noted are these: luciferase activity with 10 μM Wy-14,643 taken as 100, read-out: PPARα agonist activity, relative activity; for Emax at 0.1 µM: CV-1, 0.1 μM compound; for Emax at 1 µM: CV-1, 1 μM compound; for Emax at 10 µM: CV-1, 10 μM compound. As to the method:
as §1, §2, §3, §4, §5, §6, §7, §8, §9, §10, §11, §12, §13
Background: A reporter such as luciferase makes a cellular process visible.

Turning to `CCOC(Cc1ccc(OC)c(OCc2cnc3ccc(OC)cc3c2OC(C)C)c1)C(=O)O` (stereo not drawn) [Example 21 (118), 2-ethoxy-3-{[3-(4-isopropoxy-6-methoxyquinoline-3-yl)methyloxy]-4-methoxyphenyl}propanoic acid], on human PPARγ receptor, the Emax at 0.1 µM is 1.4%, the Emax at 1 µM is 1.9% and the Emax at 10 µM turned out to be 22.4%.

For the compound `CCOC(Cc1cccc(OCc2cnc3ccc(OC)cc3c2OC(C)C)c1)C(=O)O` (stereo not drawn) [Example 20 (114), 2-ethoxy-3-{[3-(4-isopropoxy-6-methoxyquinoline-3-yl)methyloxy]phenyl}propanoic acid], on human PPARγ receptor, the Emax at 0.1 µM was 9.3%, the Emax at 1 µM is 91% and the Emax at 10 µM stood at 110%.

As to `CCOC(Cc1ccc(OCc2cnc3cc(C)cc(C)c3c2OC(C)C)cc1)C(=O)O` (stereo not drawn) [Example 5 (71), 2-ethoxy-3-{[4-(4-isopropoxy-5,7-dimethylquinoline-3-yl)methyloxy]phenyl}propanoic acid], at human PPARγ receptor, the Emax at 0.1 µM is 0.3%, the Emax at 1 µM was found to be 0.4% and the Emax at 10 µM was 11.6%. On human PPARα receptor, the Emax at 0.1 µM amounted to 0.3%, the Emax at 1 µM is 0.5% and the Emax at 10 µM was 28.4%.

For `CCOC(Cc1ccc(OCc2cnc3cc(OC)c(OC)cc3c2OC(C)C)cc1)C(=O)O` (stereo not drawn) [Example 8 (65), 2-ethoxy-3-{[4-(4-isopropoxy-6,7-dimethoxyquinoline-3-yl)methyloxy]phenyl}propanoic acid], at human PPARγ receptor, the Emax at 0.1 µM worked out at 1.3%, the Emax at 1 µM is 13% and the Emax at 10 µM was found to be 107%. Also, at human PPARα receptor, the Emax at 0.1 µM was 0.3%, the Emax at 1 µM is 0.3% and the Emax at 10 µM stood at 1.5%.

On to `CCOC(Cc1ccc(OCc2cnc3c(Cl)cccc3c2OC(C)C)cc1)C(=O)O` (stereo not drawn) [Example 13 (76), 3-{[4-(8-chloro-4-isopropoxyquinoline-3-yl)methyloxy]phenyl}-2-ethoxypropanoic acid], for which, at human PPARγ receptor, the Emax at 0.1 µM is 104%, the Emax at 1 µM came out at 140% and the Emax at 10 µM came to 130%. Moreover, at human PPARα receptor, the Emax at 0.1 µM was 0.3%, the Emax at 1 µM was found to be 0.9% and the Emax at 10 µM came out at 41.1%.

Regarding `CCOC(Cc1ccc(OCc2cccc3cccnc23)cc1)C(=O)O` (stereo not drawn) [Example 16 (32), 2-ethoxy-3-{[4-(quinoline-8-yl)methyloxy]phenyl}propanoic acid], on human PPARγ receptor, the Emax at 0.1 µM stood at 1.6%, the Emax at 1 µM was 71.8% and the Emax at 10 µM amounted to 127%. On human PPARα receptor, the Emax at 0.1 µM is 0.3%, the Emax at 1 µM was found to be 0.4% and the Emax at 10 µM is 45.2%.

In the case of `CCCCCCCCOc1c(COc2ccc(CC(OCC)C(=O)O)cc2)cnc2ccc(OC)cc12` (stereo not drawn) [Example 7 (63), 2-ethoxy-3-{[4-(4-octyloxy-6-methoxyquinoline-3-yl)methyloxy]phenyl}propanoic acid], on human PPARγ receptor, the Emax at 0.1 µM turned out to be 13.5%, the Emax at 1 µM amounted to 63.3% and the Emax at 10 µM came to 114%. Besides, at human PPARα receptor, the Emax at 0.1 µM is 0.4%, the Emax at 1 µM amounted to 4.5% and the Emax at 10 µM stood at 64.4%.

Turning to `COc1ccc2ncc(COc3ccc(CC(Sc4ccccc4)C(=O)O)cc3)c(OC(C)C)c2c1` (stereo not drawn) [Example 19 (108), 3-{[4-(4-isopropoxy-6-methoxyquinoline-3-yl)methyloxy]phenyl}-2-phenylthiopropanoic acid], on human PPARγ receptor, the Emax at 0.1 µM was determined as 25.2%, the Emax at 1 µM was determined as 83.5% and the Emax at 10 µM amounted to 97.9%. On human PPARα receptor, the Emax at 0.1 µM is 0.3%, the Emax at 1 µM stood at 0.3% and the Emax at 10 µM worked out at 0.6%.

In the case of `CCOC(=O)C(Cc1cccc(OCc2cnc3ccc(OC)cc3c2OC(C)C)c1)C(=O)OCC` [Example 27 (128), diethyl{[3-(4-isopropoxy-6-methoxyquinoline-3-yl)methyloxy]phenyl}methylmalonate hydrochloride], on human PPARγ receptor, the Emax at 0.1 µM is 1.2%, the Emax at 1 µM was 2.1% and the Emax at 10 µM amounted to 42.5%.

For `CNC(=O)/C(=C/c1ccc(OCc2cnc3ccc(OC)cc3c2OC(C)C)cc1)C(C)=O` [Example 25 (144), 2-{[4-(4-isopropoxy-6-methoxyquinoline-3-yl)methyloxy]phenylmethylene}-3-oxobutanoic acid N-methylamide hydrochloride], on human PPARγ receptor, the Emax at 0.1 µM was determined as 0.7%, the Emax at 1 µM turned out to be 1.9% and the Emax at 10 µM was 6.2%.

As to `COC(=O)C(Cc1ccc(OCc2cnc3ccc(OC)cc3c2OC(C)C)cc1)C(=O)OC` [Example 22 (120), dimethyl{[4-(4-isopropoxy-6-methoxyquinoline-3-yl)methyloxy]phenyl}methylmalonate hydrochloride], on human PPARγ receptor, the Emax at 0.1 µM stood at 3.5%, the Emax at 1 µM worked out at 62.3% and the Emax at 10 µM turned out to be 108%.

On to `CCOC(=O)C(Cc1ccc(OC)c(OCc2cnc3ccc(OC)cc3c2OC(C)C)c1)C(=O)OCC` [Example 28 (129), diethyl{[3-(4-isopropoxy-6-methoxyquinoline-3-yl)methyloxy]-4-methoxyphenyl}methylmalonate hydrochloride], for which, at human PPARγ receptor, the Emax at 0.1 µM was found to be 1.3%, the Emax at 1 µM stood at 2.1% and the Emax at 10 µM amounted to 14.7%.

Consider `CCC(=O)C(Cc1ccc(OCc2cnc3ccc(OC)cc3c2OC(C)C)cc1)C(=O)OC` (stereo not drawn) [Example 23 (137), methyl 2-{[4-(4-isopropoxy-6-methoxyquinoline-3-yl)methyloxy]phenylmethyl}-3-oxopentanoate hydrochloride], for which, on human PPARγ receptor, the Emax at 0.1 µM stood at 2.8%, the Emax at 1 µM worked out at 30.5% and the Emax at 10 µM was 63.1%.
